In ChEMBL document CHEMBL1201862, “PubChem BioAssay data set” (2004):
Activity calls are given as the source filed them.

What was measured:
[1] = target: T1, Polyadenylate-binding protein 1 (Homo sapiens, UniProt P11940); assay: PABP1 MLLE–PAM2 interaction inhibitors, dose response, miRNA deadenylation inhibitor project, biochemical, fluorescence polarization, Cy5-PAM2 peptide, secondary (AID 602260); assay type: functional; settings: read-out: IC50_Mean
[2] = target: T2, Mannose-6-phosphate isomerase (Homo sapiens, UniProt P34949); assay: human PMI inhibitors, high substrate, primary screen, biochemical, fluorescence intensity, high mannose 6-phosphate (AID 1220)
T2 sequence (P34949 whole entry): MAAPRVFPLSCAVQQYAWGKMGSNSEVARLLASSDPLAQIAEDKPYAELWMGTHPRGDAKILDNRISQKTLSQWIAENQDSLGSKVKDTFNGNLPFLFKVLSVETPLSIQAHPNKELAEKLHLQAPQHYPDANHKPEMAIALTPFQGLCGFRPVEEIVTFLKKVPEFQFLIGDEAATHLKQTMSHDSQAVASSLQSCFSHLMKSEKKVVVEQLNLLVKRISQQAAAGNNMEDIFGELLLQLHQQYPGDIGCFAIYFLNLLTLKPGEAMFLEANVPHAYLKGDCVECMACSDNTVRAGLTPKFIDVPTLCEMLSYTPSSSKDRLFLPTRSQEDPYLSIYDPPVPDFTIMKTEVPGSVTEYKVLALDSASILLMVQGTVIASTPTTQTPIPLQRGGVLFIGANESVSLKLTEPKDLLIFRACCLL

[3] = target: T1, Polyadenylate-binding protein 1; assay: PABP1 MLLE–PAM2 binding inhibitor potency, dose response, biochemical, fluorescence polarization, FITC-PAM2 peptide (AID 602259); assay type: functional; settings: read-out: IC50_Mean
Nonstructural protein 1 = Nonstructural protein 1 (Influenza A virus, UniProt Q194T2); assay type: functional, Influenza A virus (A/California/07/2009(H1N1))
Sequence of Nonstructural protein 1 (Q194T2 whole entry): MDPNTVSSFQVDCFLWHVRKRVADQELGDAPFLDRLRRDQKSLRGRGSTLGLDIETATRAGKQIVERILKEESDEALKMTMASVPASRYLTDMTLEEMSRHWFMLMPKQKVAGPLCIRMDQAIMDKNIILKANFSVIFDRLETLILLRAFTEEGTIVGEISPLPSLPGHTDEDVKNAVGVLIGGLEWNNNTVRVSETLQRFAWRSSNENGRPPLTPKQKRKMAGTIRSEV

Streptococcus = assay: Group A Streptococcus viability loss, dose response, counter-screen for streptokinase expression inhibitor project, luminescence, BacTiterGlo (AID 1915); assay type: functional, organism-based;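 note: potency for reduction of bacterial viability or growth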
[4] = C. albicans growth with fluconazole, confirmation, fluorescence, retest (AID 2467); assay type: functional, cell-based
H9c2 = assay: cells; assay type: functional, cell-based; settings: Rattus norvegicus, H9c2, Myocardium;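 note: confirmatory concentration-response retest of ultra-high-throughput screening hits for modulation of myocardial damage; cell death induced by hydrogen peroxide oxidative stress; compound pretreatment for 60 min then peroxide exposure for 2 h; potency is for protecting the cells against peroxide damage rather than for killing them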
[5] = inhibitors of intracellular T. cruzi replication, confirmation, NIH3T3 host cells, beta-gal luminescence (AID 2044); assay type: functional, cell-based;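 note: intracellular parasites grown in NIH/3T3 mouse fibroblasts as host cells; luminescent beta-galactosidase reporter signal from transgenic T. cruzi replicating inside host cells; inhibitors lower the luminescence signal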
[6] = target: T3, Short transient receptor potential channel 4 (Mus musculus, UniProt Q9QUQ5); assay: mouse TRPC4 channel inhibitors, dose response, cell-based, HEK293 TRPC4/mu-opioid, Fluo-4 calcium (AID 434942); assay type: functional;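 note: potency of inhibitors blocking the TRPC4 calcium response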
T3 sequence (Q9QUQ5 whole entry): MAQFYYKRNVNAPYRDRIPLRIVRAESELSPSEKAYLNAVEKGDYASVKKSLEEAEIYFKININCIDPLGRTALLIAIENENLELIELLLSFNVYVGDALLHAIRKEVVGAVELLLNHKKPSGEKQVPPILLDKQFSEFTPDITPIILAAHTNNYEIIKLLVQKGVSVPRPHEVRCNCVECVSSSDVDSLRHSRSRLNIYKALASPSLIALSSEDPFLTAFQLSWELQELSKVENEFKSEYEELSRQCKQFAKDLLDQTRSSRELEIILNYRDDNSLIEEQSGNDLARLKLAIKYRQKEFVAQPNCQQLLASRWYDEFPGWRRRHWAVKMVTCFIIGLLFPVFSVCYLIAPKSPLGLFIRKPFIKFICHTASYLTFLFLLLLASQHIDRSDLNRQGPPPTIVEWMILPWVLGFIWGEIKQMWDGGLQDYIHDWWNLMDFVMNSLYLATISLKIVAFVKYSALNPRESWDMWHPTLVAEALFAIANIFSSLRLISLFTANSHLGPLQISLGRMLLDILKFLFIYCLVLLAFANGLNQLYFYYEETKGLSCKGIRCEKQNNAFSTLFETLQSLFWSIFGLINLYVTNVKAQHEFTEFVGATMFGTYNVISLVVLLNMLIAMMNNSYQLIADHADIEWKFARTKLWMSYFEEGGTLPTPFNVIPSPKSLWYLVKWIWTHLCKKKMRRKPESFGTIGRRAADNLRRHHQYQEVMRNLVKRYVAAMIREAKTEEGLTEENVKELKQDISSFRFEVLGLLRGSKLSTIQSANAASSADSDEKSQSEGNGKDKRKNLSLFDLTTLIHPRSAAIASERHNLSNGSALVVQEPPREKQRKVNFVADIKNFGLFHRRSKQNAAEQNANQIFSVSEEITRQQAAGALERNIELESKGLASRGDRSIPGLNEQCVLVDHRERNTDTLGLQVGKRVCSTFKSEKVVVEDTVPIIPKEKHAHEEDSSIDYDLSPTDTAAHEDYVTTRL

[7] = cytotoxicity toward NIH3T3 fibroblasts, dose response, counter-screen, cell-based, ATP luminescence, mouse fibroblasts (AID 2010); assay type: functional;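 note: cells exposed to compound for about 90 hours before reading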
[8] = NIH-3T3 fibroblast cytotoxicity, dose response, cytotoxicity control, cell-based, fluorescence, Alamar Blue, secondary assay (AID 2327); assay type: functional;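 note: NIH-3T3 mouse fibroblasts cultured with fluconazole at 8 µg/mL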
Vero = assay: cells; assay type: functional; settings: Chlorocebus sabaeus
[9] = tested on: Streptococcus sp. 'group A'; assay: growth inhibition of control SK(-) GAS strain, dose response, counter-screen for streptokinase expression inhibitor project, luminescence, kanamycin, BacTiterGlo, confirmation (AID 1900); assay type: functional, organism-based
cells [10] = assay type: functional, cell-based
cells [11] = assay type: functional, cell-based; remark: listed apart in the source
Cytochrome P450 2C9 = Cytochrome P450 2C9 (Homo sapiens, UniProt P11712); settings: Potency
Sequence of Cytochrome P450 2C9 (P11712 whole entry): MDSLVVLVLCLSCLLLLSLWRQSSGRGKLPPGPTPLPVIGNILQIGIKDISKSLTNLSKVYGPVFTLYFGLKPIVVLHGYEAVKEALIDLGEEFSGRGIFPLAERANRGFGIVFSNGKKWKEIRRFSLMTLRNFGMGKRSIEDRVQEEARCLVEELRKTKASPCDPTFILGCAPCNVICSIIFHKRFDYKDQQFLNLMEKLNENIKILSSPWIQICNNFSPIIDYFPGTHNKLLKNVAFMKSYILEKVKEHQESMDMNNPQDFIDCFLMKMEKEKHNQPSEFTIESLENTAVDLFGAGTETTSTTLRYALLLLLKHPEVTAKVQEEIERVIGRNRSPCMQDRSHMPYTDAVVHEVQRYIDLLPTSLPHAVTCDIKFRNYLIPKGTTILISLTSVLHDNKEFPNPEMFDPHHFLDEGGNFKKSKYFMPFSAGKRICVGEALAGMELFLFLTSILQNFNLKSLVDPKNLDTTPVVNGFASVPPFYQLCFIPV

BJ [12] = assay: cytotoxicity toward BJ-TERT fibroblasts, dose response, cell-based, RAS-independent, luminescence (AID 1933); assay type: functional; settings: Homo sapiens
[13] = cytotoxicity toward DRD oncogenic fibroblasts, dose response, cell-based, non-viral oncogenic, luminescence (AID 1934); assay type: functional; settings: Homo sapiens
BJ [14] = assay: cytotoxicity toward BJ-TERT-LT-ST fibroblasts, dose response, cell-based, RAS-independent, luminescence (AID 1935); assay type: functional; settings: Homo sapiens;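 note: BJ fibroblasts immortalized with TERT plus LT and ST oncogenes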
[15] = non-specific cell cytotoxicity, dose response, cytotoxicity control for PAX8 inhibitor project, plate reader, dry powder samples (AID 743021); assay type: functional, cell-based
Paired box protein Pax-8 = Paired box protein Pax-8 (Homo sapiens, UniProt Q06710); assay: inhibitors of PAX8-driven TPO luciferase reporter, dose response, RMG-I cells, cherry-pick (AID 687027); assay type: functional, cell-based;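 note: luciferase reporter driven by Pax8 target thyroperoxidase promoter measured by SteadyGlo luminescence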
Sequence of Paired box protein Pax-8 (Q06710 whole entry): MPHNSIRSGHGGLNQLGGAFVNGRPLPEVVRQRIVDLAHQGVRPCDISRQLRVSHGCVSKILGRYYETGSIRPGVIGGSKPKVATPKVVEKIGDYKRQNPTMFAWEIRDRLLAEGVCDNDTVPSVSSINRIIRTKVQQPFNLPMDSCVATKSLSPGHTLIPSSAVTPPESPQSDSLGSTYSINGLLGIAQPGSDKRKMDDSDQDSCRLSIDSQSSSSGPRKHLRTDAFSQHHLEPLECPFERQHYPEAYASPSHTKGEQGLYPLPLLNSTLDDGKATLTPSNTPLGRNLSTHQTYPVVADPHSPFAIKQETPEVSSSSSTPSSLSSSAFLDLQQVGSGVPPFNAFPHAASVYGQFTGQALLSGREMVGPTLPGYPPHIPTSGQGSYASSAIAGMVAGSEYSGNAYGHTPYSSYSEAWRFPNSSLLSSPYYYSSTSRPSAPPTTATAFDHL

BJ [16] = assay: cells; assay type: functional, cell-based; settings: Homo sapiens
Large T antigen = Large T antigen (Simian virus 40, UniProt P03070); assay type: functional, Betapolyomavirus macacae;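 note: Confirmatory-stage PubChem screen for compounds that inhibit SV40 T antigen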
Sequence of Large T antigen (P03070 whole entry): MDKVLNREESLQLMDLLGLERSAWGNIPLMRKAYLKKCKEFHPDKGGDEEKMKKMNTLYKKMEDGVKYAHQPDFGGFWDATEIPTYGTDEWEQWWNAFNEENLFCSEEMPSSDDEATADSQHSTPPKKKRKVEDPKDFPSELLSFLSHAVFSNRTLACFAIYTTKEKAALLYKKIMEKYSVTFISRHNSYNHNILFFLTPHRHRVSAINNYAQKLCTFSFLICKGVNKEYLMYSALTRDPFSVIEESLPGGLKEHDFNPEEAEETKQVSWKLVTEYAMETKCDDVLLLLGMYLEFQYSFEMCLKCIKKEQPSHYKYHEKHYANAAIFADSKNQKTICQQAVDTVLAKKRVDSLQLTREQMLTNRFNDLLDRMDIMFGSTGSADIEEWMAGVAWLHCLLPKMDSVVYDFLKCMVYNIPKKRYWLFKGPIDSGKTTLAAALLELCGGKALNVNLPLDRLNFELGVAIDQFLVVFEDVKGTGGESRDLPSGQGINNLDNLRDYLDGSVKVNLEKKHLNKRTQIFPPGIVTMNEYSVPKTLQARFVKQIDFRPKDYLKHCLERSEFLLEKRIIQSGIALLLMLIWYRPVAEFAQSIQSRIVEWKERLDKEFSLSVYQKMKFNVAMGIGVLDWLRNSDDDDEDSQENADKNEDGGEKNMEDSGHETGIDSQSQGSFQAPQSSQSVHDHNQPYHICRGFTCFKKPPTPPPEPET

T1 sequence (P11940 whole entry): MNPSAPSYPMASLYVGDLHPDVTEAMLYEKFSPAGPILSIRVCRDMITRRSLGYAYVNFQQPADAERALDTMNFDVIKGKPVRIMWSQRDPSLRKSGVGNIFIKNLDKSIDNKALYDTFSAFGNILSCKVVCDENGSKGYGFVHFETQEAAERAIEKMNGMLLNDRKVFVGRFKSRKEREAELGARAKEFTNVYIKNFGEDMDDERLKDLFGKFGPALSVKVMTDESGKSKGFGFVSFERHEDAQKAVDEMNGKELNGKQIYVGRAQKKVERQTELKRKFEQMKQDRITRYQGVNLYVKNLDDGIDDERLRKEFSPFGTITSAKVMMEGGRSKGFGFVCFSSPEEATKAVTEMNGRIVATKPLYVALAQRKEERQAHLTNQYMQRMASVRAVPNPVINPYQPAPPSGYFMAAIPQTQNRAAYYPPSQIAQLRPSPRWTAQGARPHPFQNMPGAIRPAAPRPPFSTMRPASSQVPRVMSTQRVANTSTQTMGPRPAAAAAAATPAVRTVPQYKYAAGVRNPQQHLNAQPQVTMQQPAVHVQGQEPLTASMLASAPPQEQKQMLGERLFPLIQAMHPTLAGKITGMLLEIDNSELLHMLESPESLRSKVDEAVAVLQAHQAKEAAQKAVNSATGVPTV

With `N#Cc1cc2c(nc1S)CCCCCC2` the IC50 [1] was > 66 µM (inactive), the IC50 [2] was > 50 µM (not active) and the IC50 [3] was > 66 µM (inactive).

For `CC(C)(C)Nc1c([N+](=O)[O-])ccc2c1=NC1(CCCCC1)[N+]=2[O-]`, the IC50 [2] was > 50 µM (not active) and the IC50 (Nonstructural protein 1) was 18.1 µM (active).

In the case of `COc1cc(NS(=O)(=O)c2ccc3ccccc3c2)c2ncccc2c1`, the EC50 (Streptococcus) is reported as 7.28 µM (active), the EC50 [4] is reported as 3.98 µM (active) and the IC50 (H9c2) is reported as > 79 µM (inactive). The EC50 [5] was 0.342 µM (active), the EC50 [6] was 0.668 µM (active) and the EC50 [7] was 1.09 µM (active). For the same compound, the EC50 [8] was > 160 µM (inactive), the CC50 (Vero) was > 25 µM (active) and the EC50 [9] was 0.412 µM (active).

For `CC(C)C(NC(=O)c1ccc(C(C)(C)C)cc1)C(=O)NCC(c1ccccc1)N(C)C` (configuration not stated), the EC50 [6] was 0.168 µM (active).

For `Cc1onc(-c2c(F)cccc2Cl)c1C(=O)N(C)CC(=O)Nc1cccc(F)c1`, the EC50 [6] was 2.11 µM (active).

In the case of `COc1cc2c(cc1OC)C(C)N(S(=O)(=O)c1ccc(Cl)nc1)CC2` (configuration not stated), the EC50 (cells [10]) is reported as > 350 µM (not active) and the EC50 (cells [11]) is reported as > 350 µM (not active).

In the case of `COc1ccc(NC(=S)Nc2ccc3nccnc3c2)cc1`, the IC50 [2] is reported as > 50 µM (not active).

For `O=C(c1ccc(F)cc1)N(Cc1cccs1)C1CCS(=O)(=O)C1` (configuration not stated), the EC50 (cells [10]) was > 350 µM (not active) and the EC50 (cells [11]) was > 350 µM (not active).

For `C=CCOC(=O)C(C(C)=O)C(NC(=O)OC)c1cccc(F)c1` (configuration not stated), the AC50 (Cytochrome P450 2C9) was 1 µM (inconclusive).

With `NCCC[C@@H](CC(=O)N[C@@H]1CCCC[C@H]1C(=O)N[C@H](CC(=O)N[C@@H](CCC(=O)O)CC(=O)O)Cc1c[nH]c2ccccc12)NC(=O)C[C@H](CO)NC(=O)[C@@H]1CCCC[C@H]1N` the AC50 (Cytochrome P450 2C9) was 31.6 µM (inconclusive).

For `COc1cccc(NC(=O)Nc2nc(-c3ccc(OC)c(OC)c3)cs2)c1`, the EC50 (BJ [12]) was 5.89 µM (active), the EC50 [13] was 5.56 µM (active) and the EC50 (BJ [14]) was 9.04 µM (inconclusive). For the same compound, the AC50 [15] was 12.3 µM (active), the AC50 (Paired box protein Pax-8) was 7.88 µM (active) and the EC50 (BJ [16]) was 8.03 µM (active).

With `COc1ccc(NC2CCCN(C(=O)c3cccc(C(F)(F)F)c3)C2)cc1OC` (configuration not stated) the IC50 (Large T antigen) was 44.1 µM (active).

For `O=C1CCCC2=C1C(Cc1ccccc1)C1=C(CCCC1=O)O2`, the EC50 (cells [10]) was > 350 µM (not active) and the EC50 (cells [11]) was > 350 µM (not active).
